Values joined by “and” are separate entries in the source; they are usually repeats but may differ in a detail not shown here. Identical values can stand only once. Active and inactive are the calls of the source.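 The calls were made as follows: active = compounds giving half or more protection of infected cells from virus-caused growth loss, again on retest; inactive = the rest.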 Where a SMILES comes first, the peptide text is derived from it. The star is where a group is joined. Boc = CC(C)(C)OC(=O)*; Bn = c1ccc(C*)cc1
Tested on: CEM cells HIV-1 protection, formazan growth assay
Assay: NCI AIDS Antiviral Assay
Conditions: for IC50: measured here: growth of uninfected CEM cells
In short: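 Human CEM cells, uninfected and HIV-1-infected, received five drug concentrations, and growth was read by soluble formazan assay. Compounds giving at least 50% protection were retested; reproducible 100% protection defined confirmed active.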

Compound	EC50	IC50	outcome
CC1(C)CNC[C@@](C)(O)C(=O)NC(C)(C)CNC[C@@](C)(O)C(=O)N1	> 200 µM	> 200 µM	
CC(=O)OCC1OC(n2c(-c3ccc(N)cc3)cc(-c3ccco3)c(C#N)c2=O)C(OC(C)=O)C(OC(C)=O)C1OC(C)=O (centres undefined)	> 11.7 µM	> 11.7 µM	
C[n+]1ccccc1/C=N/O	> 200 µM	> 200 µM	
CCOC(=O)c1nnsc1NN=C(C)C	> 200 µM	> 200 µM	
CC(=O)C1(O)C(=[N+]=[N-])C(=O)Nc2ccccc21 (centres undefined)	> 200 µM	66.1 µM	
CC(C)CCCC(C)[C@H]1CC[C@H]2[C@@H]3CC[C@H]4C[C@@H](CCC=C(c5cc(Cl)c(O)c(C(=O)O)c5)c5cc(Cl)c(O)c(C(=O)O)c5)CC[C@]4(C)[C@H]3CC[C@]12C (some centres undefined)	60.3 µM	129 µM	
C/C(=N/NC(=S)Nc1cccc(Cl)c1)c1cccc(/C(C)=N\NC(=S)Nc2cccc(Cl)c2)n1	> 200 µM	5.25 µM	
N/C(=N\N=C\c1ccccn1)NO	> 200 µM	33.1 µM	
COc1cc(-c2nc3sc(-c4ccc(O)c(OC)c4)nc3s2)ccc1O	83.2 µM	> 200 µM	
O=C1CCC(N2C(=O)C3CC=CCC3C2=O)C(=O)N1 (centres undefined)	> 200 µM	> 200 µM	
O=C(CN1CCCCC1)c1ccc2c(c1)Sc1ccccc1O2	> 200 µM	3.47 µM	
O=S1(=O)CC#CC[C@@H](CO)[C@@H](CO)CC#CC1			inactive
Nc1ccc(/C=C\c2ccc([N+](=O)[O-])cc2S(=O)(=O)O)c(S(=O)(=O)O)c1	> 200 µM	> 200 µM	
COC(=O)C(CC(C)C)NC(=O)C(C)NC(=O)C(Cc1ccc(OCc2ccccc2)cc1)NC(=O)C(COCc1ccccc1)NC(=O)OC(C)(C)C (centres undefined) (Boc-S(Bn)Y(Bn)AL-OMe; configuration not given here)	> 200 µM	83.2 µM	
O=S1c2ccccc2N=C(c2ccc(Cl)cc2)CC1c1cccs1 (centres undefined)	> 7.41 µM	> 7.41 µM	
CCOC(=O)c1ccc(CS(=O)(=O)c2ccc(Cl)cc2)cc1	> 55 µM	> 55 µM	
COc1cc2c(c(OC)c1OC)C1CCCCC1SCC2O (centres undefined)	> 398 µM	77.6 µM	
O=c1cc(-c2ccccc2)oc2cc(O)ccc12	> 186 µM	85.1 µM	
CN(C)c1ccc(/C=C/C(=O)/C=C/c2ccc(N(C)C)cc2)cc1	> 4.27 µM	> 4.27 µM	
O=c1c(OS(=O)(=O)O)c(-c2ccc(OS(=O)(=O)O)c(OS(=O)(=O)O)c2)oc2cc(OS(=O)(=O)O)cc(OS(=O)(=O)O)c12	> 100 µM	51.3 µM	
O=Cc1cn(CCCCCCCCn2cc(C=O)c3ccccc32)c2ccccc12	> 200 µM	> 200 µM	
CC1C[C@H](C)CC(C(O)CC2CC(=O)N(Cc3ccccc3)C(=O)C2)C1O (some centres undefined)	> 200 µM	> 200 µM	

Compound	EC50	IC50	outcome
O=c1[nH]c(=O)n([C@H]2C[C@@H](CO)[C@@H](O)C2)cc1I	> 708 µM	> 708 µM	
c1ccc2c(c1)cc1c3[nH]c4ccccc4c3ccn21	> 200 µM	6.76 µM	
S=P(c1ccccc1)(c1ccccc1)C1(C2(P(=S)(c3ccccc3)c3ccccc3)CC2)CC1	> 10 µM	> 10 µM	
O=C1CCCCCCCCCCC1CN1CCOCC1 (centres undefined)	> 72.4 µM	> 72.4 µM	
O=NC1C(=O)NC(=O)NC1=O	> 200 µM	> 200 µM	
COc1ccccc1CN1CC(C)N(N=Cc2c3c(O)c4c(O)c(C)c5c(c4c2O)C(=O)C(C)(O/C=C/C(OC)C(C)C(OC(C)=O)C(C)C(O)C(C)C(O)C(C)/C=C/C=C(\C)C(=O)N3)O5)C(C)C1 (centres undefined)	> 200 µM	7.76 µM	
C=c1c2ccccc2oc2nc3[nH]c(N)c(C#N)c(N)c3c(=N)c12	> 200 µM	7.24 µM	
Cc1c(C#N)c(N)[nH]c(=S)c1C#N	> 200 µM	> 200 µM	
N#Cc1c2c(c(N3CCOCC3)n3c1nc1ccccc13)CCCC2	> 200 µM	8.32 µM	
COc1ccc(-c2cc(=O)c3c(O)c(OC)c(OC)c(OC)c3o2)cc1	> 200 µM	55 µM	
CCOC(=O)C1(C(=O)OCC)OC(=O)NC2=C1CCCC2	> 832 µM	145 µM	
[N-]=[N+]=NC1CC(n2cc(Cc3cccc(OCc4ccccc4)c3)c(=O)[nH]c2=O)OC1CO (centres undefined)			inactive
O=c1n(-c2ccccc2)c(=O)n2n1C1CC3c4ccccc4C1C32 (centres undefined)	> 22.9 µM	> 22.9 µM	
Nc1nc(Cl)cc(NCC2(O)CCCC2)n1	> 200 µM	166 µM	
COC(=O)OC[C@H]1O[C@@H](n2cc(C)c(=O)[nH]c2=O)CC1OC(=O)OC (some centres undefined)	> 200 µM	> 200 µM	
O=C(CN1CCN(Cc2ccccc2)CC1)c1ccc2[nH]c(=O)oc2c1	> 200 µM	158 µM	
N#C/C(=C\c1ccccc1Cl)C(=O)c1ccccc1	> 132 µM	13.2 µM	
C[C@]12CCC(=O)C=C1CC[C@@H]1C2CC[C@]2(C)c3nn(-c4ccccc4)nc3CC12 (some centres undefined)			inactive
Cc1cn(C2CC(N(C)O)C(CO)O2)c(=O)[nH]c1=O (centres undefined)	31.6 µM and > 200 µM	> 200 µM and 33.1 µM	
O=C1c2cccc3cccc(c23)C(=O)N1CCCN1C(=O)c2cccc3cccc(c23)C1=O	> 200 µM	110 µM	
CCCCN1C(CO)C(O)C(O)C(O)C1CO (centres undefined)	> 200 µM	> 200 µM	
COc1cc(C[C@H]2C(=O)OC[C@@H]2Cc2ccc(OC)c(OC)c2)cc(OC)c1	> 200 µM	91.2 µM	

Compound	EC50	IC50	outcome
O=c1[nH]cnc2c1ncn2[C@@H]1C[C@@H]1CO	> 200 µM	> 200 µM	
NC12c3c4cccc3Oc3cccc(c31)Oc1cccc(c12)O4	> 50.1 µM	28.8 µM	
Nc1c2c([nH]c(=O)c1N)CCC2	> 200 µM	> 200 µM	
CC1(SCC(N)C(=O)O)CC(=O)NC1=O (centres undefined)	> 200 µM	> 200 µM	
O=C1C(=O)C(Br)(c2ccccc2)C(=O)C1c1ccccc1 (centres undefined)	> 200 µM	> 200 µM	
CC(=O)Nc1cc(OCC(=O)O)ccc1S(=O)(=O)c1ccc(OCC(=O)O)cc1NC(C)=O	> 200 µM	> 200 µM	
O=C1c2c(Br)sc(Br)c2[C@@H](NC(=O)C(F)(F)F)C1Br (some centres undefined)	> 200 µM	3.8 µM	
Cc1ccc(-c2nn3c(-c4ccccc4)nnc3o2)cc1	> 200 µM	132 µM	
O=C1C2=Nc3ccccc3C(O)N2c2ccccc21 (centres undefined)	> 200 µM	69.2 µM	
O=[N+]([O-])c1ccc(Cl)cc1C1ON=C(c2ccccc2)N1C12CC3CC(CC(C3)C1)C2 (centres undefined)	> 100 µM	> 100 µM	
CCOC(=O)C1=C(C)N(NC(=O)OC)C2(N)N(NC(=O)OC)C(C)=C(C(=O)OCC)C12C#N (centres undefined)	> 537 µM	> 537 µM	
COc1ccc(C2(C3c4cc(OC)c(OC)cc4CCN3C)SCCCS2)cc1O (centres undefined)	> 200 µM	151 µM	
COc1cc(OC)c(OC)cc1/C=C\c1ccnc2ccccc12	> 30.9 µM	1.48 µM	
Cc1ccc2nc3c(Cl)cc(=O)cc-3sc2c1	> 7.59 µM	3.89 µM	
CC(=O)c1ccc2c(c1)oc(=O)n2CCN(C)C	> 200 µM	141 µM	
CC(=O)CC[N+](C)(C)C			inactive
c1ccc(C2SCC3COCN32)cc1 (centres undefined)	> 240 µM	> 240 µM	
N#Cc1nc(C(=O)c2ccccc2)oc1N	> 200 µM	> 200 µM	
O=C(N=C1[Se]C(=Nc2ccccc2)C(=Nc2ccccc2)N1c1ccccc1)c1ccc([N+](=O)[O-])cc1	> 200 µM	> 200 µM	
Nc1nc2ncn(CCO)c2c(=O)[nH]1	> 93.3 µM	> 93.3 µM	
Clc1nc(NC2CCCCC2)nc(NC2CCCCC2)n1			inactive
CC(C)OP(=O)(OC(C)C)C(Nc1cccc(C(F)(F)F)c1)c1ccccc1 (centres undefined)	> 200 µM	33.9 µM	

Compound	EC50	IC50	outcome
CNS(=O)(=O)NN(C)S(=O)(=O)c1ccccc1	> 891 µM	148 µM	
CCN1CCC(O)(/C=C/c2ccc(OC)cc2)C(C(=O)/C=C/c2ccc(OC)cc2)C1 (centres undefined)	> 479 µM	> 479 µM	
O=C1OC2(c3ccccc3Oc3ccccc32)c2ccccc21			inactive
N=C(N)SCc1cccc2c(=O)cc(-c3ccccc3)oc12	> 646 µM	5.62 µM	
CCOC(=O)c1ccc(Nc2cnc3cc(C(F)(F)F)ccc3n2)cc1	> 200 µM	141 µM	
Cc1cccc(C)c1N1C(=O)C(=O)C(c2nc3ccccc3s2)/C(=N/NC(=O)c2ccccc2O)C1=O (centres undefined)	> 251 µM	6.61 µM	
CNS(=O)(=O)NN(C)S(=O)(=O)c1ccc(Br)cc1	> 132 µM	> 132 µM	
Cc1ccc(S(=O)(=O)N/N=C(\c2nc3ccc(Cl)cc3[nH]c2=O)C(O)c2cccc([N+](=O)[O-])c2)cc1 (centres undefined)	> 468 µM	162 µM	
Nc1[nH]nc2nc3ccc(C(F)(F)F)cc3nc12	> 200 µM	29.5 µM	
CC[P+](c1ccccc1)(N(C)C)N(C)C	> 200 µM	112 µM	
CC(=O)N(C(=O)CC(=O)N1N=C(c2ccccc2)C(N=Nc2ccccc2[N+](=O)[O-])C1=O)c1ccc(Cl)cc1 (centres undefined)	166 µM	> 200 µM	
COC(=O)c1cc(OS(=O)(=O)C(F)(F)F)c(=O)n2c1CCCC2	> 200 µM	89.1 µM	
O=c1cc(CO)oc(C(O)c2ccccc2)c1O (centres undefined)	> 200 µM	> 200 µM	
CC1(C)C=[N+]([O-])C(C)(C)N1O	> 200 µM	> 200 µM	
N#CC1CCCCCCCCCCC(=O)N(CCCl)C1=O (centres undefined)	> 60.3 µM	> 60.3 µM	
CN1CC(=O)N2Cc3ccccc3-n3cccc3C2C1 (centres undefined)			inactive
CC/C(=C(\CC)c1ccc(OCCCN2CCCCC2C)cc1)c1ccc(OCCCN2CCCCC2C)cc1 (centres undefined)	> 20 µM	2.29 µM	
COc1cccc2c1C(CO)N1C(C#N)C3CC(C(=O)O)C(C1C2)N3C (centres undefined)	> 0.355 µM	0.0372 µM	
Cc1ccnc(NS(=O)(=O)c2ccc(NC3=CC(=O)C(=O)c4ccccc43)cc2)n1			inactive
CC(=O)O[C@H]1CC[C@]2(C)C3CC[C@]4(C)C([C@H](C)CCCC(C)C)CCC4[C@]3(/C=N/O)n3c(=O)n(-c4ccccc4)c(=O)n3[C@]2(/C=N\O)C1 (some centres undefined)	> 200 µM	11 µM	

Reference: PubChem BioAssay AID179 (DTP/NCI, 2004)
